Experiment [1] concerns human colon carcinoma cells HCT-116/VM46. Description: In vitro cytotoxicity (XTT assay), 72 h, HCT-116/VM46 multi-drug resistant cells. The class given is cell-based. The settings on record: for IC50: Homo sapiens, read-out: IC50, drug concentration required to inhibit cell proliferation to 50% of untreated control.
Experiment [2] relates to human colon carcinoma cells HCT-116. In words: In vitro cytotoxicity (XTT assay), 72 h, HCT-116 human colon carcinoma cells. The experiment is classed as cell-based. The settings on record: read-out: IC50, drug concentration required to inhibit cell proliferation to 50% of untreated control.
In experiment [3] the test system is advanced cases of ovarian, breast, and other cancers. The following applies: NCI trials; cited from earlier work.
The mark [4] stands for this setting: HCT-116/VM46 vs HCT-116, value in parentheses, 4320 min.
[5] abbreviates: HCT-116/VM46 (teniposide-selected, multi-drug resistant), XTT, 72 h.

Like-named read-outs stand apart in the source and are kept apart here.

As for `CC(=O)O[C@H]1C(=O)[C@]2(C)CC[C@H]3OC[C@@]3(OC(C)=O)[C@H]2[C@H](OC(=O)c2ccccc2)[C@]2(O)C[C@H](OC(=O)[C@H](O)[C@@H](NC(=O)OC(C)(C)C)c3ccccc3)C(C)=C1C2(C)C` [Ia, N-Debenzoyl-N-t-butoxycarbonyl-7-deoxytaxol], the “fold resistance relative to HCT116 cells” value in experiment [1] (setting [4]) is on record as 3.5 fold. The IC50 came out at 7 nM in experiment [1] (setting [5]) and 2 nM in experiment [2] (HCT-116, XTT, 72 h).

On to `CC(=O)O[C@H]1C(=O)[C@]2(C)CC[C@H]3OC[C@@]3(OC(C)=O)[C@H]2[C@H](OC(=O)c2ccccc2)[C@]2(O)C[C@H](OC(=O)[C@H](O)[C@@H](NC(=O)c3ccccc3)c3ccccc3)C(C)=C1C2(C)C` [Ib, 7-Deoxytaxol], for which, in experiment [1] (setting [4]), the “fold resistance relative to HCT116 cells” value was 14 fold. Also, the IC50 in experiment [1] (setting [5]) was found to be 55 nM; in experiment [2] (HCT-116, XTT, 72 h), 4 nM.

As to `CC(=O)O[C@@]12CO[C@@H]1CC[C@@]1(C)C(=O)CC3=C(C)[C@@H](OC(=O)[C@H](O)[C@@H](NC(=O)OC(C)(C)C)c4ccccc4)C[C@@](O)([C@@H](OC(=O)c4ccccc4)[C@H]21)C3(C)C` [Ic, N-Debenzoyl-N-t-butoxycarbonyl-7-deoxy-10-deoxy-10-desacetyloxytaxol], the IC50 in experiment [2] (HCT-116, 72 h) worked out at 12 nM.

With `CC(=O)O[C@@]12CO[C@@H]1CC[C@@]1(C)C(=O)CC3=C(C)[C@@H](OC(=O)[C@H](O)[C@@H](NC(=O)c4ccccc4)c4ccccc4)C[C@@](O)([C@@H](OC(=O)c4ccccc4)[C@H]21)C3(C)C` [Id, 7-Deoxy-10-desacetyloxytaxol], in experiment [2] (HCT-116, 72 h), the IC50 was 29 nM.

Turning to `CC(=O)O[C@H]1C(=O)[C@@]2(C)[C@H]([C@H](OC(=O)c3ccccc3)[C@]3(O)C[C@H](OC(=O)[C@H](O)[C@@H](NC(=O)c4ccccc4)c4ccccc4)C(C)=C1C3(C)C)[C@]1(OC(C)=O)CO[C@@H]1C[C@@H]2O` [Taxol], the IC50 in experiment [1] (HCT-116/VM46, 72 h) is 440 nM; in experiment [2] (HCT-116, 72 h), 4 nM. For the same compound, in experiment [1] (human, hct-116/vm46 vs hct-116, 4320 min), the “fold resistance relative to HCT116 cells” value is listed as 124 fold. The “clinical results in advanced cancers (in words)” value in experiment [3] is given as “promising results”.

As to `CC(=O)O[C@@]12CO[C@@H]1C[C@H](O)[C@@]1(C)C(=O)[C@H](O)C3=C(C)[C@@H](OC(=O)[C@H](O)[C@@H](NC(=O)OC(C)(C)C)c4ccccc4)C[C@@](O)([C@@H](OC(=O)c4ccccc4)[C@H]21)C3(C)C` [taxotere, reference compound], the “fold resistance relative to HCT116 cells” value in experiment [1] (setting [4]) was 53 fold. In addition, the IC50 in experiment [1] (setting [5]) was 213 nM; in experiment [2] (HCT-116, XTT, 72 h) it was 4 nM.

Source of the values: patent US5478854A, “Deoxy taxols” (Bristol-Myers Squibb Company, priority 1994, dated 1995).
